Structures can show the parent of a compound that is named as a salt. Where two headings read alike, the source gives them in different places.

Assay [1] deals with T1, recombinant thioredoxin reductase 1 (TrxR1) (Homo sapiens, UniProt Q16881).
T1 sequence (Q16881 1-649): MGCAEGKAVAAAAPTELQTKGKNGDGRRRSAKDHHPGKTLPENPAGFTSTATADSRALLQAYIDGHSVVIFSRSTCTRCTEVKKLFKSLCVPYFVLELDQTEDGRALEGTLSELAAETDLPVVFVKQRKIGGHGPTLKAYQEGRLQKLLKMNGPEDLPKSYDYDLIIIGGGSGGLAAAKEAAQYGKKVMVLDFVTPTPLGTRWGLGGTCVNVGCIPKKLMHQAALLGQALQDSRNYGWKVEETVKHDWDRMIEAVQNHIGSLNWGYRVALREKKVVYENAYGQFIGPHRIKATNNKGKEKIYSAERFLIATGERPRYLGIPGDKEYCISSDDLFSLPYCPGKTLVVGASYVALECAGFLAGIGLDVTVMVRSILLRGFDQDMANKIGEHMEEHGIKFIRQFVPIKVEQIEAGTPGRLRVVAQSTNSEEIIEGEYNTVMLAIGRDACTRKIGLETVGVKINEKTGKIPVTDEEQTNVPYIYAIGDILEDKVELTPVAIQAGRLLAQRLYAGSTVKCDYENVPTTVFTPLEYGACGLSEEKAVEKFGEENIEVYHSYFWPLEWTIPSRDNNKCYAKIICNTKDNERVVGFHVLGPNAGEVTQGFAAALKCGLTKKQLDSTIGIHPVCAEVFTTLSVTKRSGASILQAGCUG
The assay can be described thus: Inhibition of recombinant TrxR1 (DTNB assay). It is filed as biochemical. The procedure:
(§1) Small molecule inhibition of recombinant thioredoxin reductase 1 (TrxR1) and gluthathione reductase (GR) was examined in 96-well plate format. 15 nM TrxR1 was incubated in the presence of 250 μM NADPH, 0.1 mg/ml BSA, and various concentrations of the compound of Example 1 (1% DMSO final) in 50 mM Tris (pH 7.5) and 2 mM EDTA buffer for 15 minutes. Following the incubation period, 2.5 mM DTNB was added to each well and the change in O.D. at 412 nm was followed. Percent activity was determined using DMSO vehicle and no TrxR1 (blank) controls. 2 nM GR was incubated in the presence of 250 μM NADPH, 0.1 mg/ml BSA, and various concentrations of compounds (1% DMSO final) in 50 mM Tris (pH 7.5) and 2 mM EDTA buffer for 15 minutes. Following the incubation period, 1 mM GSSG was added to each well and the change in O.D. at 340 nm was followed. Percent activity was determined using DMSO vehicle and no GR (blank) controls.

In assay [2] the target is T2, gluthathione reductase (GR) (Homo sapiens, UniProt P00390).
T2 sequence (P00390 44-522): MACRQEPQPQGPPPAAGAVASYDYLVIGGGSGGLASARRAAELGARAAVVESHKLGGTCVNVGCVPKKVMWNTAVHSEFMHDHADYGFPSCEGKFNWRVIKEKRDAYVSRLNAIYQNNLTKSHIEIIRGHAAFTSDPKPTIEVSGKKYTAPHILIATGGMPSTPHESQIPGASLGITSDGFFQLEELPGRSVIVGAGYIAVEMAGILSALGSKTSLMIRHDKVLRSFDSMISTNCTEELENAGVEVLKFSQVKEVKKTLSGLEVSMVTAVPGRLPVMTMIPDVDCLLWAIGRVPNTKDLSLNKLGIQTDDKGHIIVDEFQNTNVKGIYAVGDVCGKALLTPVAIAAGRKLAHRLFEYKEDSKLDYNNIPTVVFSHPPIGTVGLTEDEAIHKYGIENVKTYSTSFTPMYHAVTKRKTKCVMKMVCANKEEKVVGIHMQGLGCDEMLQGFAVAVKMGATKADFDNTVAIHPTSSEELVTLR
As to the kind of experiment: Inhibition of recombinant GR (GSSG assay). In kind it is biochemical. The procedure: as §1

Setting [3] is: Biological Example 4, assays of Biological Example 1, read-out: TrxR Inhibition.
Setting [4] is: Biological Example 4, assays of Biological Example 1.

Regarding `CS(=O)(=O)c1ccc(CN2[C@@H]3C(=O)C=C[C@H]2[C@@H]2C(=O)N(c4ccccc4)C(=O)[C@@H]23)cc1` (relative stereo) [Example 23, exo-11-(4-(Methylsulfonyl)benzyl)-4-phenyl-4,11-diazatricyclo[5.3.1.0^2,6]-undec-9-ene-3,5,8-trione Trifluoroacetate], the IC50 in assay [1] (setting [3]) is 3.83 µM; in assay [2] (setting [4]), greater than 100 µM.

Take `O=C1C=C[C@H]2[C@@H]3C(=O)N(c4ccccc4)C(=O)[C@@H]3[C@@H]1N2Cc1ccccc1Cl` (relative stereo) [Example 24, exo-11-(2-Chlorobenzyl)-4-phenyl-4,11-diazatricyclo[5.3.1.0^2,6]undec-9-ene-3,5,8-trione Trifluoroacetate]: the IC50 in assay [1] (setting [3]) was 1.3 µM; in assay [2] (setting [4]), greater than 100 µM.

`O=C1C=C[C@H]2[C@@H]3C(=O)N(c4ccccc4)C(=O)[C@@H]3[C@@H]1N2CC1CC1` (relative stereo) [Example 25, exo-11-(Cyclopropylmethyl)-4-phenyl-4,11-diazatricyclo[5.3.1.0^2,6]undec-9-ene-3,5,8-trione Trifluoroacetate]: the IC50 in assay [1] (setting [3]) was 7.06 µM; in assay [2] (setting [4]) it was greater than 100 µM.

As to `O=C1C=C[C@H]2[C@@H]3C(=O)N(c4ccccc4)C(=O)[C@@H]3[C@@H]1N2Cc1cc(F)ccc1F` (relative stereo) [Example 27, exo-11-(2,5-Difluorobenzyl)-4-phenyl-4,11-diazatricyclo[5.3.1.0^2,6]undec-9-ene-3,5,8-trione Trifluoroacetate], the IC50 was 1.34 µM in assay [1] (setting [3]) and greater than 100 µM in assay [2] (setting [4]).

On to `O=C1C=C[C@H]2[C@@H]3C(=O)N(c4ccccc4)C(=O)[C@@H]3[C@@H]1N2Cc1cccc(F)c1` (relative stereo) [Example 29, exo-11-(3-Fluorobenzyl)-4-phenyl-4,11-diazatricyclo[5.3.1.0^2,6]undec-9-ene-3,5,8-trione Trifluoroacetate], for which the IC50 in assay [1] (setting [3]) is 1.07 µM; in assay [2] (setting [4]), greater than 100 µM.

Take `COC(=O)c1cccc(CN2[C@@H]3C(=O)C=C[C@H]2[C@H]2C(=O)N(c4ccccc4)C(=O)[C@H]23)c1` (relative stereo) [Example 45, endo-Methyl 3-((3,5,10-trioxo-4-phenyl-4,11-diazatricyclo[5.3.1.0^2,6]undec-8-en-11-yl)methyl)benzoate]: the IC50 in assay [1] (setting [3]) was 1.4 µM; in assay [2] (setting [4]) it was greater than 100 µM.

Consider `CCN1C(=O)C2C(C1=O)[C@@H]1C=CC(=O)[C@H]2N1Cc1ccccc1` (relative stereo) [Example 46, endo-11-Benzyl-4-ethyl-4,11-diazatricyclo[5.3.1.0^2,6]undec-9-ene-3,5,8-trione Trifluoroacetate], for which the values for the IC50 in assay [1] (setting [3]) and in assay [2] (setting [4]) were 5.1 µM and greater than 100 µM, respectively.

Take `CCN1C(=O)[C@@H]2[C@H](C1=O)[C@H]1C(=O)C=C[C@@H]2N1Cc1ccccc1` (relative stereo) [Example 47, exo-11-Benzyl-4-ethyl-4,11-diazatricyclo[5.3.1.0^2,6]undec-9-ene-3,5,8-trione Trifluoroacetate]: the IC50 in assay [1] (setting [3]) was 4.15 µM; in assay [2] (setting [4]) it was greater than 100 µM.

For `CCN1C(=O)[C@@H]2[C@H](C1=O)[C@H]1C(=O)C=C[C@@H]2N1Cc1cccc(C)c1` (relative stereo) [Example 49, exo-4-Ethyl-11-(3-methylbenzyl)-4,11-diazatricyclo[5.3.1.0^2,6]undec-9-ene-3,5,8-trione Trifluoroacetate], the IC50 in assay [1] (setting [3]) was 2.53 µM; in assay [2] (setting [4]), greater than 100 µM.

In the case of `CN1C(=O)[C@@H]2[C@H](C1=O)[C@H]1C(=O)C=C[C@@H]2N1Cc1ccccc1` (relative stereo) [Example 51, exo-11-Benzyl-4-methyl-4,11-diazatricyclo[5.3.1.0^2,6]undec-9-ene-3,5,8-trione Trifluoroacetate], the IC50 is 4.61 µM in assay [1] (setting [3]) and greater than 100 µM in assay [2] (setting [4]).

On to `Cc1cccc(CN2[C@@H]3C(=O)C=C[C@H]2[C@@H]2C(=O)N(C)C(=O)[C@@H]23)c1` (relative stereo) [Example 53, exo-4-Methyl-11-(3-methylbenzyl)-4,11-diazatricyclo[5.3.1.0^2,6]undec-9-ene-3,5,8-trione Trifluoroacetate], for which the IC50 was 3.26 µM in assay [1] (setting [3]) and greater than 100 µM in assay [2] (setting [4]).

For the compound `O=C1C=C[C@H]2[C@@H]3C(=O)N(c4ccc(O)cc4)C(=O)[C@@H]3[C@@H]1N2Cc1ccccc1` (relative stereo) [Example 54, exo-11-Benzyl-4-(4-hydroxyphenyl)-4,11-diazatricyclo[5.3.1.0^2,6]undec-9-ene-3,5,8-trione Trifluoroacetate], the IC50 in assay [1] (setting [3]) was 1.8 µM; in assay [2] (setting [4]), greater than 100 µM.

In the case of `Cc1cccc(CN2[C@@H]3C(=O)C=C[C@H]2[C@@H]2C(=O)N(c4ccc(O)cc4)C(=O)[C@@H]23)c1` (relative stereo) [Example 55, exo-4-(4-Hydroxyphenyl)-11-(3-methylbenzyl)-4,11-diazatricyclo[5.3.1.0^2,6]-undec-9-ene-3,5,8-trione Trifluoroacetate], the IC50 in assay [1] (setting [3]) was 1.64 µM; in assay [2] (setting [4]) it was greater than 100 µM.

In the case of `Cc1cccc(CN2[C@@H]3C(=O)C=C[C@H]2[C@@H]2C(=O)N(c4ccccc4O)C(=O)[C@@H]23)c1` (relative stereo) [Example 56, exo-4-(2-Hydroxyphenyl)-11-(3-methylbenzyl)-4,11-diazatricyclo[5.3.1.0^2,6]-undec-9-ene-3,5,8-trione Trifluoroacetate], the IC50 in assay [1] (setting [3]) was 1.44 µM; in assay [2] (setting [4]), greater than 100 µM.

Take `Cc1cccc(CN2[C@@H]3C(=O)C=C[C@H]2[C@@H]2C(=O)N(c4cccc(O)c4)C(=O)[C@@H]23)c1` (relative stereo) [Example 58, exo-4-(3-Hydroxyphenyl)-11-(3-methylbenzyl)-4,11-diazatricyclo[5.3.1.0^2,6]undec-9-ene-3,5,8-trione Trifluoroacetate]: the IC50 in assay [1] (Biological Example 1, 15 nM TrxR1, 250 μM NADPH, 15 minutes incubation, read-out: TrxR inhibition) is 0.75 µM; in assay [1] (setting [3]), 1.3 µM; in assay [2] (Biological Example 1, 2 nM GR, 250 μM NADPH, 15 minutes incubation) it was greater than 100 µM; in assay [2] (setting [4]), greater than 100 µM.

Consider `CCc1ccc(N2C(=O)[C@@H]3[C@H](C2=O)[C@H]2C(=O)C=C[C@@H]3N2Cc2cccc(C)c2)cc1` (relative stereo) [Example 59, exo-4-(4-Ethylphenyl)-11-(3-methylbenzyl)-4,11-diazatricyclo[5.3.1.0^2,6]-undec-9-ene-3,5,8-trione Trifluoroacetate], for which the figures for the IC50 in assay [1] (setting [3]) and in assay [2] (setting [4]) were 1.63 µM and greater than 100 µM, respectively.

Take `CCN1C(=O)[C@@H]2[C@H](C1=O)[C@H]1C(=O)C=C[C@@H]2N1C` (relative stereo) [Example 61, exo-4-Ethyl-11-methyl-4,11-diazatricyclo[5.3.1.0^2,6]undec-9-ene-3,5,8-trione Trifluoroacetate]: the IC50 in assay [1] (setting [3]) is 23.4 µM; in assay [2] (setting [4]) it was greater than 100 µM.

On to `Cc1cccc(CN2[C@@H]3C(=O)C=C[C@H]2[C@@H]2C(=O)N(c4cccc(Br)c4)C(=O)[C@@H]23)c1` (relative stereo) [Example 62, exo-4-(3-Bromophenyl)-11-(3-methylbenzyl)-4,11-diazatricyclo[5.3.1.0^2,6]-undec-9-ene-3,5,8-trione Trifluoroacetate], for which the results for the IC50 in assay [1] (setting [3]) and in assay [2] (setting [4]) were 1.23 µM and greater than 100 µM, respectively.

Values taken from patent US10881653B2, “Tricyclic compounds and their use in the treatment of cancer” (The United States of America, as represented by the …, priority 2015, dated 2021).
